Columns and labels:
[1] = biological target: Death-associated protein kinase 2 (Homo sapiens) (UniProt Q9UIK4); conditions: Compound concentration 1000.0 nM
[2] = biological target: Phosphatidylinositol 3-kinase C2 domain-containing subunit gamma (Homo sapiens) (UniProt O75747); conditions: Compound concentration 1000.0 nM
[3] = biological target: MAP/microtubule affinity-regulating kinase 4 (Homo sapiens) (UniProt Q96L34); conditions: Compound concentration 1000.0 nM
[4] = test system: Serine/threonine-protein kinase B-raf (Homo sapiens), P15056 [V600E]; conditions: Compound concentration 1000.0 nM
[5] = test system: Epidermal growth factor receptor (Homo sapiens), P00533 [UNDEFINED MUTATION]; conditions: Compound concentration 1000.0 nM
Chain of Epidermal growth factor receptor (Homo sapiens), P00533 [UNDEFINED MUTATION] (P00533 whole entry, looked up, stated change not applied): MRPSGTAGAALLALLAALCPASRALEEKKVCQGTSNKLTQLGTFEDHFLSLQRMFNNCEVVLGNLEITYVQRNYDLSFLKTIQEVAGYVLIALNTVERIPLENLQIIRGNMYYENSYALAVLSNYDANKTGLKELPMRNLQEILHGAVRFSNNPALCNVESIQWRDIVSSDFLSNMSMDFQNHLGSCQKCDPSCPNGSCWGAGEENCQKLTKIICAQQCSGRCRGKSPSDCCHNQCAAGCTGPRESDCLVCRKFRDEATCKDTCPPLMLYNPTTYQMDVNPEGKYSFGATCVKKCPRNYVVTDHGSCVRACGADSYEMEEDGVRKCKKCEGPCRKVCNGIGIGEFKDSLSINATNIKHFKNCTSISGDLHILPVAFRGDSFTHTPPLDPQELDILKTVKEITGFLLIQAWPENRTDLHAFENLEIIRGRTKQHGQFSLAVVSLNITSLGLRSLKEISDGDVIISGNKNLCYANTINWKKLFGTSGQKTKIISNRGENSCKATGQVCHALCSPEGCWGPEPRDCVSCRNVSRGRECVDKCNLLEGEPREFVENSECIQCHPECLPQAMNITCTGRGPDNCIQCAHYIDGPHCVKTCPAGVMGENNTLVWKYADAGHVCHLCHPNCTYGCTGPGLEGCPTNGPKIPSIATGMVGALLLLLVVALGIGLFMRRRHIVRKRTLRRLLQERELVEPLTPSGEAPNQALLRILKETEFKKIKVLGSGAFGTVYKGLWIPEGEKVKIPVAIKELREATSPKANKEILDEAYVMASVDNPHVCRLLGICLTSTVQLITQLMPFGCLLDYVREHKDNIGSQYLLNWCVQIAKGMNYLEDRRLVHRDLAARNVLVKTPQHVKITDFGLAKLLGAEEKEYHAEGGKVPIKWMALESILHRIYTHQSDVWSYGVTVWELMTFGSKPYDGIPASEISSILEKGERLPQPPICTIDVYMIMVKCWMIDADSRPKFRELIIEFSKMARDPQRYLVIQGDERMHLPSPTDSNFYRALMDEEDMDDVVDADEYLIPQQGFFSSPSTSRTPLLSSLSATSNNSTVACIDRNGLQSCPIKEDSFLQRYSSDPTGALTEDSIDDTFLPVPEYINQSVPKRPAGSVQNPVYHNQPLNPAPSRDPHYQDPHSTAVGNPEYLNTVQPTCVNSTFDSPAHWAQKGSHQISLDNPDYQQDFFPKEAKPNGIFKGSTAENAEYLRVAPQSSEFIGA

[6] = biological target: Homeodomain-interacting protein kinase 4 (Homo sapiens) (UniProt Q8NE63); conditions: Compound concentration 1000.0 nM
[7] = biological target: Cyclin-dependent kinase 14 (Homo sapiens) (UniProt O94921); conditions: Compound concentration 1000.0 nM
[8] = biological target: Rho-associated protein kinase 1 (Homo sapiens) (UniProt Q13464); conditions: Compound concentration 1000.0 nM
[9] = biological target: Mitogen-activated protein kinase 13 (Homo sapiens) (UniProt O15264); conditions: Compound concentration 1000.0 nM
[10] = biological target: Serine/threonine-protein kinase MRCK alpha (Homo sapiens) (UniProt Q5VT25); conditions: Compound concentration 1000.0 nM
[11] = biological target: Ephrin type-A receptor 1 (Homo sapiens) (UniProt P21709); conditions: Compound concentration 1000.0 nM
[12] = biological target: Serine/threonine-protein kinase PAK 4 (Homo sapiens) (UniProt O96013); conditions: Compound concentration 1000.0 nM
[13] = biological target: Tyrosine-protein kinase Tec (Homo sapiens) (UniProt P42680); conditions: Compound concentration 1000.0 nM
[14] = test system: Phosphatidylinositol 4,5-bisphosphate 3-kinase catalytic subunit alpha isoform (Homo sapiens), P42336 [E545K]; conditions: Compound concentration 1000.0 nM
Chain of Phosphatidylinositol 4,5-bisphosphate 3-kinase catalytic subunit alpha isoform (Homo sapiens), P42336 [E545K] (P42336 whole entry E545K, canonical isoform): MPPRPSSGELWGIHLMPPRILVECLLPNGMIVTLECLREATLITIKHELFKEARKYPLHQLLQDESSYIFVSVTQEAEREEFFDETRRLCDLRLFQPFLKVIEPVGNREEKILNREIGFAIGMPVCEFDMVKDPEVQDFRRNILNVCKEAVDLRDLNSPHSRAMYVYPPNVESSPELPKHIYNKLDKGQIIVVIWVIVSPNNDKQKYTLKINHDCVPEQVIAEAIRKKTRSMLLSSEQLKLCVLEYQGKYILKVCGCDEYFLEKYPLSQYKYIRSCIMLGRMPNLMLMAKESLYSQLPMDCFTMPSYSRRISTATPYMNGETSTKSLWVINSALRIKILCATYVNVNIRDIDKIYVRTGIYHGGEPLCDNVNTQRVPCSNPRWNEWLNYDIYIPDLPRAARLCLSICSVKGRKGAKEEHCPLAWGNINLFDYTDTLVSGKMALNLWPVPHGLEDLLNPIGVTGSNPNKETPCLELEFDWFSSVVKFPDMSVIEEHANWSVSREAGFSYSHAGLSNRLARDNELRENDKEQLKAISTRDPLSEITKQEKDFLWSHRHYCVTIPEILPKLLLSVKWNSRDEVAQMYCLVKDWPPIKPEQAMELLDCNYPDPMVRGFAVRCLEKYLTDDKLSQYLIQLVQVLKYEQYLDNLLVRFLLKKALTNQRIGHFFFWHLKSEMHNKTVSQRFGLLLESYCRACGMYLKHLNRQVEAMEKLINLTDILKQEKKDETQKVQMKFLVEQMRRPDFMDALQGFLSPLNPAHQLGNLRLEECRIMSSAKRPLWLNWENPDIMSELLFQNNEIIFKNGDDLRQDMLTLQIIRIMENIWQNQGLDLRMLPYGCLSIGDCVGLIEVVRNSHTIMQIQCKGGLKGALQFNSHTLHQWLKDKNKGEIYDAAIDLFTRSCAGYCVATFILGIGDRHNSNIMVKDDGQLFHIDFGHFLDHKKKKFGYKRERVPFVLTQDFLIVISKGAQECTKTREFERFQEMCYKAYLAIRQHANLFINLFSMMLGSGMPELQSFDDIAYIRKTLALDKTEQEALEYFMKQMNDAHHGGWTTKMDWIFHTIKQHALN

[15] = biological target: Serine/threonine-protein kinase BRSK2 (Homo sapiens) (UniProt Q8IWQ3); conditions: Compound concentration 1000.0 nM
[16] = biological target: Phosphatidylinositol 5-phosphate 4-kinase type-2 beta (Homo sapiens) (UniProt P78356); conditions: Compound concentration 1000.0 nM
Chain of Phosphatidylinositol 5-phosphate 4-kinase type-2 beta (Homo sapiens) (P78356 whole entry): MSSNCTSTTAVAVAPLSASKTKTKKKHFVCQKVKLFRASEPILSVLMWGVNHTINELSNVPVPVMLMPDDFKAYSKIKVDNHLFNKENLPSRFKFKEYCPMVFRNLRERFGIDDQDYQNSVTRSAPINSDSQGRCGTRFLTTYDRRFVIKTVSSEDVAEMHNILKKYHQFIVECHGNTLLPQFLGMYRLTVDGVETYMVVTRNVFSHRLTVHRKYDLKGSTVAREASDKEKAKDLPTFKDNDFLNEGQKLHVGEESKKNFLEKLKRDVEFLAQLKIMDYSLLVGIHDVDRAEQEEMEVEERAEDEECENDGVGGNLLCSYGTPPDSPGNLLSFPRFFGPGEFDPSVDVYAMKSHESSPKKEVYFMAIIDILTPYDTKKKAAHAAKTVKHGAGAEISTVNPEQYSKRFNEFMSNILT

[17] = biological target: Serine/threonine-protein kinase tousled-like 1 (Homo sapiens) (UniProt Q9UKI8); conditions: Compound concentration 1000.0 nM
[18] = biological target: 5-hydroxytryptamine receptor 2A (Homo sapiens) (UniProt P28223); conditions: Compound concentration 10.0 uM
[19] = test system: Phosphatidylinositol 4,5-bisphosphate 3-kinase catalytic subunit alpha isoform (Homo sapiens), P42336 [C420R]; conditions: Compound concentration 1000.0 nM
Chain of Phosphatidylinositol 4,5-bisphosphate 3-kinase catalytic subunit alpha isoform (Homo sapiens), P42336 [C420R] (P42336 whole entry C420R, canonical isoform): as the sequence (P42336 whole entry E545K, canonical isoform) above, with C420R, K545E counted along it

[20] = biological target: Platelet-derived growth factor receptor alpha (Homo sapiens) (UniProt P16234); conditions: Compound concentration 1000.0 nM
[21] = biological target: Serine/threonine-protein kinase STK11 (Homo sapiens) (UniProt Q15831); conditions: Compound concentration 1000.0 nM
[22] = biological target: Phosphatidylinositol 4-phosphate 3-kinase C2 domain-containing subunit beta (Homo sapiens) (UniProt O00750); conditions: Compound concentration 1000.0 nM
Chain of Phosphatidylinositol 4-phosphate 3-kinase C2 domain-containing subunit beta (Homo sapiens) (O00750 whole entry, the tested form may be a part): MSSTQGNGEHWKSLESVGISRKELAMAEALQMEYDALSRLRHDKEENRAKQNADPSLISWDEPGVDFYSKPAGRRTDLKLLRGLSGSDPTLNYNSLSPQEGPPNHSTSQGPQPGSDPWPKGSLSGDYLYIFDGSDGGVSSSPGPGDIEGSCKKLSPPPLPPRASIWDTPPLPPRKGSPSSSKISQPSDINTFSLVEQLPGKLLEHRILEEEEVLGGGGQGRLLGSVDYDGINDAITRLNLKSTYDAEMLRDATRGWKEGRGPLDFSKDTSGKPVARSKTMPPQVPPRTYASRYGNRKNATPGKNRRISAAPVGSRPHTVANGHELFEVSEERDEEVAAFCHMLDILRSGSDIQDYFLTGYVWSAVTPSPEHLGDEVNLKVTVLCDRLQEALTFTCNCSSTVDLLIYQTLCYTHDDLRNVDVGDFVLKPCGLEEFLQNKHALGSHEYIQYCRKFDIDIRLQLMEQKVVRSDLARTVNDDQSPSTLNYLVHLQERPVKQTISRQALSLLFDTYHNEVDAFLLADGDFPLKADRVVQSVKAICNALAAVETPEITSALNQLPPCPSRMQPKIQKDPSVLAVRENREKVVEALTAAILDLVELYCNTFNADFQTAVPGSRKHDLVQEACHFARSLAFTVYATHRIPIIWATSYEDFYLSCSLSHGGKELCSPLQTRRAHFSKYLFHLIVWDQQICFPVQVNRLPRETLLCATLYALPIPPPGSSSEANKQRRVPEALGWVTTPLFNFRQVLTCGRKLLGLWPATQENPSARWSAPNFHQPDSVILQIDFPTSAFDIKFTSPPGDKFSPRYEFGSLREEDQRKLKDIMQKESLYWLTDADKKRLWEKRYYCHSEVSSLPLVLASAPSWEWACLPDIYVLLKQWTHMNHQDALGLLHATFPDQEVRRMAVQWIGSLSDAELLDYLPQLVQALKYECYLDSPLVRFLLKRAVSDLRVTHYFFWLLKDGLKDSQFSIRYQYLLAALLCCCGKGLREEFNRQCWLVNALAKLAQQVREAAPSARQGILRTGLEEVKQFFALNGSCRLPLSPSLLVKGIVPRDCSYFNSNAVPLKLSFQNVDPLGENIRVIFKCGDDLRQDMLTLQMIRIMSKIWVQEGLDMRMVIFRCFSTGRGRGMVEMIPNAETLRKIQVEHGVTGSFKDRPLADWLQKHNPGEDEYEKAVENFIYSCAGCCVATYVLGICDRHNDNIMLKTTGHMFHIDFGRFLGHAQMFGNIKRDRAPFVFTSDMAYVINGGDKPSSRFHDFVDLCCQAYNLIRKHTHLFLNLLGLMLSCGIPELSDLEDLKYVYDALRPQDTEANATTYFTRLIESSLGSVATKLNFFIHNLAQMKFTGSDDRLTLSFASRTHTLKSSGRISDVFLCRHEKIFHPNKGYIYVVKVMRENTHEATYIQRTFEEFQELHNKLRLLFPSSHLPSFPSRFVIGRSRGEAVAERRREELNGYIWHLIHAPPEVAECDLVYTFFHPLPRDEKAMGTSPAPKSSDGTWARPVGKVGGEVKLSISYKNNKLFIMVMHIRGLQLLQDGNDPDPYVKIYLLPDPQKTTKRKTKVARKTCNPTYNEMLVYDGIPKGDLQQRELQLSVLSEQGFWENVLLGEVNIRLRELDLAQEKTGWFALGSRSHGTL

[23] = biological target: Vascular endothelial growth factor receptor 3 (Homo sapiens) (UniProt P35916); conditions: Compound concentration 1000.0 nM
[24] = biological target: Maternal embryonic leucine zipper kinase (Homo sapiens) (UniProt Q14680); conditions: Compound concentration 1000.0 nM
[25] = biological target: Mitogen-activated protein kinase kinase kinase 20 (Homo sapiens) (UniProt Q9NYL2); conditions: Compound concentration 1000.0 nM
[26] = biological target: Mitogen-activated protein kinase kinase kinase 1 (Homo sapiens) (UniProt Q13233); conditions: Compound concentration 1000.0 nM
[27] = biological target: Tyrosine-protein kinase Lyn (Homo sapiens) (UniProt P07948); conditions: Compound concentration 1000.0 nM
[28] = biological target: 5-hydroxytryptamine receptor 1E (Homo sapiens) (UniProt P28566); conditions: Compound concentration 10.0 uM
[29] = biological target: Muscarinic acetylcholine receptor M4 (Homo sapiens) (UniProt P08173); conditions: Compound concentration 10.0 uM
Chain of Muscarinic acetylcholine receptor M4 (Homo sapiens) (P08173 whole entry): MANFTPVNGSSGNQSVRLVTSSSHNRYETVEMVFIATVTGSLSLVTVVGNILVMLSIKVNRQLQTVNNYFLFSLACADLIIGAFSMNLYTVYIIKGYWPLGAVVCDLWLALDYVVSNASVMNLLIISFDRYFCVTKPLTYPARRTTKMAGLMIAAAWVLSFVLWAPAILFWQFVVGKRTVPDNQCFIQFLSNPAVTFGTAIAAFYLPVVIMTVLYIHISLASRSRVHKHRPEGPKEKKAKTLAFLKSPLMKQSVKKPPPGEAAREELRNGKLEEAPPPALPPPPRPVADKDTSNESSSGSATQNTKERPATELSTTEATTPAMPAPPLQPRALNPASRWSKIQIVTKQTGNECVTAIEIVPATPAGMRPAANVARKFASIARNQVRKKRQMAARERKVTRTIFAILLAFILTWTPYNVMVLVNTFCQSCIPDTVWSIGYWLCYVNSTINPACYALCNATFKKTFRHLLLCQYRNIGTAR

[30] = biological target: Calcium/calmodulin-dependent protein kinase type II subunit beta (Homo sapiens) (UniProt Q13554); conditions: Compound concentration 1000.0 nM
[31] = biological target: Glycogen synthase kinase-3 beta (Homo sapiens) (UniProt P49841); conditions: Compound concentration 1000.0 nM
[32] = biological target: Muscarinic acetylcholine receptor M5 (Homo sapiens) (UniProt P08912); conditions: Compound concentration 10.0 uM
[33] = biological target: Serine/threonine-protein kinase Sgk1 (Homo sapiens) (UniProt O00141); conditions: Compound concentration 1000.0 nM
[34] = biological target: Mitogen-activated protein kinase kinase kinase 9 (Homo sapiens) (UniProt P80192); conditions: Compound concentration 1000.0 nM
[35] = test system: Epidermal growth factor receptor (Homo sapiens), P00533 [UNDEFINED MUTATION]; conditions: Compound concentration 1000.0 nM; remark: listed apart in the source
[36] = test system: Fibroblast growth factor receptor 3 (Homo sapiens), P22607 [G697C]; conditions: Compound concentration 1000.0 nM
[37] = biological target: T1, Muscarinic acetylcholine receptor M2 (Homo sapiens) (UniProt P08172); conditions: Compound concentration 10.0 uM
T1 sequence (whole entry): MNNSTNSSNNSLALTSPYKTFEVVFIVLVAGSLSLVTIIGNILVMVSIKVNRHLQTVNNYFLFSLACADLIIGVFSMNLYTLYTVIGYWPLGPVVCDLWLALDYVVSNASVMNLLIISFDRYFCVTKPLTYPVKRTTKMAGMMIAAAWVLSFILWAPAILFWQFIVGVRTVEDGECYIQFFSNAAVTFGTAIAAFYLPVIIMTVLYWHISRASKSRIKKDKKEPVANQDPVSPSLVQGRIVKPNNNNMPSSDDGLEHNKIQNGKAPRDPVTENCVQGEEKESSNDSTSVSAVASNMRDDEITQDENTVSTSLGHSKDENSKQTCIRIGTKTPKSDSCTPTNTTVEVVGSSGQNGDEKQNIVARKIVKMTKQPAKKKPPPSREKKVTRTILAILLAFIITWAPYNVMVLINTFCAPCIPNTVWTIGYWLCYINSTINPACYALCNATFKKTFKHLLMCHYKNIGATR

[38] = biological target: Serine/threonine-protein kinase pim-1 (Homo sapiens) (UniProt P11309); conditions: Compound concentration 1000.0 nM

O=C(O)[C@@H]1[C@@H](Cn2nnc3ccccc3c2=O)CC[C@H]1C(=O)c1ccc(OCCC2CCOCC2)cc1 [BAY-694]
inactive: residual activity [1] 100% | residual activity [2] 95% | residual activity [3] 100% | residual activity [4] 100% | residual activity [5] 95% | residual activity [6] 100% | residual activity [7] 100% | residual activity [8] 84% | residual activity [9] 94% | residual activity [10] 91% | residual activity [11] 100% | residual activity [12] 89% | residual activity [13] 95% | residual activity [14] 80% | residual activity [15] 100% | residual activity [16] 81% | residual activity [17] 100% | inhibition [18] 18.4% | residual activity [19] 100% | residual activity [20] 100% | residual activity [21] 94% | residual activity [22] 100% | residual activity [23] 100% | residual activity [24] 85% | residual activity [25] 91% | residual activity [26] 100% | residual activity [27] 97% | inhibition [28] 3.94% | inhibition [29] -7.11% | residual activity [30] 100% | residual activity [31] 100% | inhibition [32] 1.82% | residual activity [33] 74% | residual activity [34] 100% | residual activity [35] 100% | residual activity [36] 92% | inhibition [37] -2.32% | residual activity [38] 100%

O=C(O)[C@H]1[C@H](Cn2nnc3ccccc3c2=O)CC[C@@H]1C(=O)c1ccc(OCCC2CCOCC2)cc1 [BAY-7598]
inactive: residual activity [1] 100% | residual activity [2] 99% | residual activity [3] 96% | residual activity [4] 100% | residual activity [5] 80% | residual activity [6] 100% | residual activity [7] 100% | residual activity [8] 87% | residual activity [9] 97% | residual activity [10] 100% | residual activity [11] 100% | residual activity [12] 91% | residual activity [13] 100% | residual activity [14] 72% | residual activity [15] 100% | residual activity [16] 84% | residual activity [17] 96% | inhibition [18] 16.2% | residual activity [19] 100% | residual activity [20] 100% | residual activity [21] 76% | residual activity [22] 90% | residual activity [23] 81% | residual activity [24] 96% | residual activity [25] 100% | residual activity [26] 100% | residual activity [27] 92% | inhibition [28] 7.37% | inhibition [29] -5.24% | residual activity [30] 100% | residual activity [31] 100% | inhibition [32] 4.3% | residual activity [33] 100% | residual activity [34] 81% | residual activity [35] 100% | residual activity [36] 100% | inhibition [37] 1.41% | residual activity [38] 95%
